Laboratory results taken from US20210161894A1, “Compositions and Methods for Modulating Liver Endothelial Cell Fenestrations” (priority 2017, published 2021).
Entries after “also recorded” stand apart in the source; their conditions may differ.

Columns and labels:
[1] = system: isolated LSECs (liver sinusoidal endothelial cells); assay: SEM of fenestrations in isolated LSECs from young and old mice after 30 min drug treatment (second Example 7); type: cell-based; conditions: for Diameter / Frequency / Porosity: 30 min; for effect on porosity and fenestration frequency (summary in words): young and old LSECs
Method: 3-4 and 18-24 month old male C57/B16 mice were obtained from the Animal Resource Centre in Perth, Western Australia. Animals were housed at the ANZAC Research Institute animal house on a 12 hour light/dark cycle and provided with ad libitum access to food and water. Mice were not fasted prior to euthanasia by a single intraperitoneal injection with 100 mg/kg ketamine and 10 mg/kg xylazine in saline. The study was approved by the Animal Welfare Committee of the Sydney Local Health District and was performed in accordance with the Australian Code of Practice for the care and use of animals for scientific research (AWC 2016/009). All information provided accords with the ARRIVE guidelines.
As described previously (Cogger et al. J e52698, 2015 https://dx.doi.org/10.3791/52698), mouse LSEC isolation was performed by perfusion of the liver with collagenase. Non-parenchymal cells were removed by a two-step Percoll gradient and Kupffer cells were removed by selective adherence to plastic. LSECs (seeded at 0.5×10^6 cells/cm2) were cultured (37° C., 5% CO2) in serum free RPMI-1640 for 3.5 hours before use.
Cells were treated with various agents for 30 minutes to determine effects on fenestrations. All agents were dissolved in serum-free RPMI media. All experiments were performed in triplicate for both young and old mice. Actin was disrupted with 0.5 μg/ml cytochalasin D and lipid rafts were disrupted with 3.6 and 1.8 μg/ml 7-keocholesterol; dosages were selected. […] The serotonergic/phospholipase C pathway was promoted with DOI (0.1 μg/ml) and endothelin receptors were inhibited by bosentan (550, 55 and 5.5 ng/ml) Death receptor 4 was promoted with TRAIL (100, 10. 1, 0.1 and 0.01 ng/ml) and NAD+ was promoted with NMN (5000, 50, 10, 1 and 0.1 μg/ml).
SEM was performed as previous described (Corbin et al J Biol Chem 274: 13729-13732, 1999.). LSECs were fixed in 2.5% glutaraldehyde in 0.1M sodium cacodylate buffer, osmicated, dehydrated in graded ethanol and hexamethyl disilazane, mounted on stubs, sputter coated with platinum and examined using a JEOL 6380 Scanning Electron Microscope (JEOL Ltd, Japan). Images at 10,000× magnification were collected by a blinded observer and used to measure fenestration diameter and LSEC porosity using Image J (NIH, MD, USA). […] Fenestrations less than 30 nm and gaps more than 300 nm were excluded from analysis. Porosity was defined as the percentage of the cell membrane covered with fenestrations. Frequency was defined at the number of fenestrations per […].
Individual specifications of analyses are described in figures legends. All data are presented as mean±SD. Experimental design and analysis were performed in accordance with the APS guidelines described in Curran-Everett and Benos DJ. Adv Physiol Educ 31: 295-298, 2007.

LSEC fenestrations = assay: SEM of LSEC fenestrations after drug treatments (Example 2, FIGS. 1-6); type: cell-based, mice; conditions: for change in fenestration diameter: Bosentan 0.1 μM, Sildenafil 300 ng/ml, TRAIL 1 μg/ml; for sieve plates and fenestration density on SEM images: young and old mice
Text: Young and old C57B16 mice (n=3 young mice, age 3-4 and n=3 old mice, 20-24 months) were maintained under full SPF conditions and with ad libitum feeding. The study had the approval of the Sydney South West Area Health Service Animal Welfare Committee. Mice at 20-24 months are senescent. Animals were sacrificed withCO2 and livers immediately perfusion-fixed via a 23G needle inserted into the portal vein. Liver tissue was fixed with1% glutaraldehyde/4% para-formaldehyde in PBS (0.1M sucrose).
Drug treatments and dosages (shown superimposed on their corresponding image in FIGS. 1, and 2) were performed by incubating liver cells at 37° C., 5% CO2 for 30 mins using RPMI with or without dissolved drug. All images were taken by two blinded researchers using a SEM at 10,000×, scale bars of 1 μm are shown.
Each data point represents the average±SD of 8 images (as shown in FIGS. 1 and 2), 616-3312 fenestration raw data points were collected per treatment.

[2] = system: actin cytoskeleton of LSECs; assay: dSTORM imaging of the actin cytoskeleton; type: cell-based; conditions: young mice
Method: dSTORM imaging was performed using an in-house microscope. LSECs were prepared for dSTORM by washing twice with PBS and fixation with 4% paraformaldehyde for 30 mins. Then LSECs were washed twice with PBS, permeabilised with Triton-X for 90 secs, blocked with 5% bovine serum albumin for 1 hour, and stained with Alexa Flour phalloidin 488 (1:40) for 20 min prior to imaging. Cells were washed using PBS with 0.1% Tween and placed in OxEA buffer (30) for dSTORM visualisation and image capture. The dSTORM used 488 and 647 nm excitation from diode-pumped lasers (Coherent Inc, CA, USA). Excitation was delivered via a 1.49NA 60× oil-immersion TIRF objective (Olympus Australia, AUS). Fluorescence was captured on two separate sCMOS cameras (Imaging Development Systems GmbH, Germany). Data was collected for up to 40,000 images at around 75 fps. 5-8 whole cell images were collected by a blinded observer for each treatment dosage and processed using rapidSTORM open source software (Wolter et al. Nat Methods 9: 1040, 2012.). Each image was examined for all sieve plates and actin structures. Densitometry measurements were performed using 5-8 dSTORM images with data analysis performed using Image J software (NIH, MD, USA).

Intracellular cGMP = assay: Cyclic GMP ELISA; type: cell-based, mice; conditions: p=0.001
Method: Assays for MTT and cGMP were performed as instructed by the kit. Briefly, MTT assays were performed following drug treatments. Cells were washed with PBS and incubated with RPMI media containing […] MTT solution. Cells were incubated at 37° C. for 4 hrs and lysed with […] solubilisation solution, 30 mins colour development followed and measured at 570 nm using a spectrophotometer. cGMP assays were also performed after drug treatments. Cells were washed with PBS and lysed with 0.1M HCl. Following sample collection the sample was acetylated and prepared with kit reagents. Samples were incubated for 18 hrs at 4° C. before examination at 410 nm with a spectrophotometer.

[3] = system: lipid rafts and fenestrations of LSECs; assay: 3D-SIM study of lipid rafts and fenestrations; type: cell-based
Text: Sieve plates containing fenestrations are intercalated between thickened areas of membrane (lipid rafts).

Molecule: CCOC(=O)C1=C(COCCN)NC(C)=C(C(=O)OC)C1c1ccccc1Cl (stereo not shown) [Amlodipine, amlodipine]
- Diameter ([1]; old mice, 5 ng/ml): 119.67 ± 22.63 nm
- Frequency ([1]; old mice, 5 ng/ml): 3.56 ± 1.07 no/area
- Porosity ([1]; old mice, 5 ng/ml): 4.44 ± 0.29 %
- Change in Frequency, Old ([1]; old mice, 20 ng/ml): ↑ (ns)
- Change in Porosity, Old ([1]; old mice, 20 ng/ml): ↑ (ns)
- Diameter ([1]; old mice, 20 ng/ml): 125.00 ± 13.36 nm
- Frequency ([1]; old mice, 20 ng/ml): 3.00 ± 0.66 no/area
- Porosity ([1]; old mice, 20 ng/ml): 3.98 ± 0.48 %
- Diameter ([1]; young mice, 5 ng/ml): 125.87 ± 9.30 nm
- Frequency ([1]; young mice, 5 ng/ml): 3.47 ± 1.00 no/area
- Porosity ([1]; young mice, 5 ng/ml): 4.73 ± 0.80%
- Diameter ([1]; young mice, 20 ng/ml): 123.66 ± 1.18 nm
- Frequency ([1]; young mice, 20 ng/ml): 4.67 ± 0.65 no/area
- Porosity ([1]; young mice, 20 ng/ml): 6.44 ± 1.14 %
- fenestration diameter (LSEC fenestrations; young mice, 20 ng/ml): 123.8±1.6 nm

Molecule: COc1ccccc1Oc1c(NS(=O)(=O)c2ccc(C(C)(C)C)cc2)nc(-c2ncccn2)nc1OCCO [Bosentan, bosentan]
- Diameter ([1]; old mice, 5.5 ng/ml): 131.03 ± 16.29 nm
- Frequency ([1]; old mice, 5.5 ng/ml): 3.14 ± 0.35 no/area
- Porosity ([1]; old mice, 5.5 ng/ml): 4.53 ± 0.59 %
- Diameter ([1]; old mice, 55 ng/ml): 121.14 ± 23.80 nm
- Frequency ([1]; old mice, 55 ng/ml): 2.31 ± 1.03 no/area
- Porosity ([1]; old mice, 55 ng/ml): 3.21 ± 0.36%
- Diameter ([1]; old mice, 550 ng/ml): 118.64 ± 4.36 nm
- Frequency ([1]; old mice, 550 ng/ml): 1.46 ± 0.54 no/area
- Porosity ([1]; old mice, 550 ng/ml): 1.86 ± 0.72%
- effect on porosity and fenestration frequency (summary in words) [1]: LSECs from old mice only were responsive
- Diameter ([1]; young mice, 5.5 ng/ml): 129.55 ± 5.46 nm
- Frequency ([1]; young mice, 5.5 ng/ml): 3.66 ± 0.30 no/area
- Porosity ([1]; young mice, 5.5 ng/ml): 5.18 ± 0.45%
- Diameter ([1]; young mice, 55 ng/ml): 132.12 ± 9.03 nm
- Frequency ([1]; young mice, 55 ng/ml): 3.20 ± 1.23 no/area
- Porosity ([1]; young mice, 55 ng/ml): 4.48 ± 1.12%
- Diameter ([1]; young mice, 550 ng/ml): 133.73 ± 9.03 nm
- Frequency ([1]; young mice, 550 ng/ml): 2.30 ± 0.04 no/area
- Porosity ([1]; young mice, 550 ng/ml): 3.66 ± 0.41%
- fenestration porosity (LSEC fenestrations; old mice, 0.1 μM): 4.2±0.4%
- change in fenestration diameter (LSEC fenestrations; old mice, 7KC 4.5 μM): No changes
- sieve plates and fenestration density on SEM images (LSEC fenestrations): maintained sieve plates and increased fenestration density
- fenestration porosity (LSEC fenestrations; young mice, 0.1 μM): 5.4±0.1%
- change in fenestration diameter (LSEC fenestrations; young mice): No changes
- actin changes with drug treatments (dSTORM) [2]: Stress fibres; also recorded: Fused actin structure; also recorded: Individual fenestrations

Molecule: CCCc1nn(C)c2c(=O)[nH]c(-c3cc(S(=O)(=O)N4CCN(C)CC4)ccc3OCC)nc12 [Sildenafil, sildenafil]
- Diameter ([1]; old mice, 0.3 μg/ml): 138.91 ± 13.05 nm
- Frequency ([1]; old mice, 0.3 μg/ml): 3.41 ± 0.68 no/area
- Porosity ([1]; old mice, 0.3 μg/ml): 5.49 ± 1.33 %
- Diameter ([1]; old mice, 0.6 μg/ml): 143.69 ± 10.80 nm
- Frequency ([1]; old mice, 0.6 μg/ml): 2.88 ± 01.16 no/area
- Porosity ([1]; old mice, 0.6 μg/ml): 4.97 ± 1.34 %
- effect on porosity and fenestration frequency (summary in words) [1]: significant increases in porosity and fenestration frequency in both young and old LSECs
- dose response on fenestration porosity (words) ([1]; young mice): limited dosage range for positive effects on fenestration porosity
- Diameter ([1]; young mice, 0.3 μg/ml): 126.34 ± 16.36 nm
- Frequency ([1]; young mice, 0.3 μg/ml): 4.54 ± 0.34 no/area
- Porosity ([1]; young mice, 0.3 μg/ml): 6.34 ± 2.09 %
- Diameter ([1]; young mice, 0.6 μg/ml): 130.33 ± 16.02 nm
- Frequency ([1]; young mice, 0.6 μg/ml): 3.56 ± 0.61 no/area
- Porosity ([1]; young mice, 0.6 μg/ml): 4.92 ± 0.35%
- dose response on fenestration porosity (words) ([1]; young mice, listed as sildenafil): did not promote greater changes in fenestration porosity or frequency
- fenestration numbers, fenestrated cell area and sieve plate formation ([1]; young mice, sildenafil 0.3 μg/ml, amlodipine 20 ng/ml, TRAIL 1 ng/ml): increased fenestration numbers and overall fenestrated cell area with some disruption to sieve plate formation
- fenestration porosity (LSEC fenestrations; old mice, 300 ng/ml): 5.4±1.9%
- change in fenestration diameter (LSEC fenestrations; old mice, 7KC 4.5 μM): No changes
- sieve plates and fenestration density on SEM images (LSEC fenestrations): maintained sieve plates and increased fenestration density
- fenestration porosity (LSEC fenestrations; young mice, 300 ng/ml): 7.1±2.2%
- change in fenestration diameter (LSEC fenestrations; young mice): No changes
- actin changes with drug treatments (dSTORM) [2]: disordered, dense actin staining in the plasma membrane and clustering of actin within the cytoplasm; also recorded: Disordered actin structure; also recorded: Gap formations; also recorded: Individual fenestrations
- actin changes with drug treatments (dSTORM) ([2]; listed as sildenafil): loss of smooth fibres encircling the cytoplasm
- increase of intracellular cGMP (Intracellular cGMP): 3 fold

Molecule: CCC(C)(C)C(=O)O[C@H]1C[C@@H](C)C=C2C=C[C@H](C)[C@H](CC[C@@H]3C[C@@H](O)CC(=O)O3)[C@H]21 [Simvastatin, simvastatin]
- Change in Diameter, Old ([1]; old mice, 0.1 μg/ml): ↑ (ns)
- Diameter ([1]; old mice, 0.1 μg/ml): 147.47 ± 6.47 nm
- Frequency ([1]; old mice, 0.1 μg/ml): 1.89 ± 0.74 no/area
- Change in Diameter, Old ([1]; old mice, 1 μg/ml): ↑ (ns)
- Diameter ([1]; old mice, 1 μg/ml): 145.96 ± 6.55 nm
- Frequency ([1]; old mice, 1 μg/ml): 1.88 ± 0.86 no/area
- Diameter ([1]; young mice, 0.1 μg/ml): 144.35 ± 18.95 nm
- Frequency ([1]; young mice, 0.1 μg/ml): 2.42 ± 0.55 no/area
- Porosity ([1]; young mice, 0.1 μg/ml): 4.05 ± 0.41%
- Diameter ([1]; young mice, 1 μg/ml): 126.55 ± 9.64 nm
- Frequency ([1]; young mice, 1 μg/ml): 2.83 ± 0.51 no/area
- Porosity ([1]; young mice, 1 μg/ml): 3.99 ± 0.55%
- fenestration diameter (LSEC fenestrations; old mice, both Simvastatin treatments): 152.0±19.2 nm

Molecule: Triton X-100
- effect on fenestrations and lipid rafts [3]: decreased fenestrations and increased rafts

Molecule: VEGF
- effect on fenestrations and lipid rafts [3]: depleted lipid rafts and increased fenestrations
